One assay relates to SiHa cell line. More on the design: method as in PMID 32102414. As to conditions: cited from earlier work.
Assay [1] concerns 60 human tumor cell lines (NCI60). Description: NCI60 one-dose screen (10 μM), whole panel. The class given is cell-based. The conditions noted are these: 10 μM one-dose, NCI60.

SMILES strings stand for the structures.

In general, IC50 refers to the concentration that inhibits the measured activity by half.

As to `CC[C@]12C=CCN3CC[C@@]4(c5ccc(OC)cc5N(C)[C@H]4[C@@](O)(C(=O)OC)[C@@H]1OC(=O)CCCN1CCN(CCCC(=O)O[C@@H]4[C@]5(CC)C=CCN6CC[C@@]7(c8ccc(OC)cc8N(C)[C@H]7[C@@]4(O)C(=O)OC)[C@@H]65)CC1)[C@@H]32` [Compound 4], the IC50 with SiHa cell line was 2.85 µM.

With `CCC12C=CCN3CCC4(c5cc(N)c(OC)cc5N(C)C4C(O)(C(=O)OC)C1OC(C)=O)C32` (centres unmarked) [Compound 11, 10-aminovindoline], the “antiproliferative effect (in words)” value in assay [1] is “a notable antiproliferative effect was not shown”.

The values are drawn from PMC11277489, “Novel Piperazine Derivatives of Vindoline as Anticancer Agents” (International Journal of Molecular Sciences, 2024).
